Legend:
hOX1R = hOX1R (Homo sapiens, UniProt O43613); assay: FLIPR Ca2+ Flux Assay, hOX1R; assay type: cell-based; settings: CHO cells expressing orexin-1 receptor; agonist 70 pM Ala-6,12 orexin-A
human orexin-2 receptor = human orexin-2 receptor (Homo sapiens (Human), UniProt O43614); assay: FLIPR Ca2+ Flux Assay, hOX2R; assay type: cell-based; settings: CHO cells expressing the human orexin-2 receptor; agonist 70 pM Ala-6,12 orexin-A
Method: In a typical experiment the OX1 and OX2 receptor antagonistic activity of the compounds of the present invention was determined in accordance with the following experimental method. For intracellular calcium measurements, Chinese hamster ovary (CHO) cells expressing the rat orexin-1 receptor or the human orexin-2 receptor, are grown in Iscove's modified DMEM containing 2 mM L-glutamine, […], 1% hypoxanthine-thymidine supplement, 100 U/ml penicillin, 100 μg/ml streptomycin and 10% heat-inactivated fetal calf serum (FCS). The cells are seeded at 20,000 cells/well into Becton-Dickinson black 384-well clear bottom sterile plates coated with poly-D-lysine. All reagents were from GIBCO-Invitrogen Corp. The seeded plates are incubated overnight at 37° C. and 5% CO2. Ala-6,12 human orexin-A as the agonist is prepared as a 1 mM stock solution in 1% bovine serum albumin (BSA) and diluted in assay buffer (HBSS containing 20 mM HEPES, 0.1% BSA and 2.5 mM probenecid, pH7.4) for use in the assay at a final concentration of 70 pM. Test compounds are prepared as 10 mM stock solution in DMSO, then diluted in 384-well plates, first in DMSO, then assay buffer. On the day of the assay, cells are washed 3 times with 100 μl assay buffer and then incubated for 60 min (37° C., 5% CO2) in 60 μl assay buffer containing 1 μM Fluo-4AM ester, 0.02% pluronic acid, and 1% BSA. The dye loading solution is then aspirated and cells are washed 3 times with 100 μl assay buffer. 30 μl of that same buffer is left in each well. Within the Fluorescent Imaging Plate Reader (FLIPR, Molecular Devices), test compounds are added to the plate in a volume of 25 μl, incubated for 5 min and finally 25 μl of agonist is added. Fluorescence is measured for each well at 1 second intervals for 5 minutes and the height of each fluorescence peak is compared to the height of the fluorescence peak induced by 70 pM Ala-6,12 orexin-A with buffer in place of antagonist. For each antagonist, IC50 value (the concentration of compound needed to inhibit 50% of the agonist response) is determined Alternatively, compound potency can be assessed by a radioligand binding assay (described in Bergman et. al. Bioorg. Med. Chem. Lett. 2008, 18, 1425-1430) in which the inhibition constant (Ki) is determined in membranes prepared from CHO cells expressing either the OX1 or OX2 receptor. The intrinsic orexin receptor antagonist activity of a compound which may be used in the present invention may be determined by these assays.

Sequence of human orexin-2 receptor (O43614 whole entry): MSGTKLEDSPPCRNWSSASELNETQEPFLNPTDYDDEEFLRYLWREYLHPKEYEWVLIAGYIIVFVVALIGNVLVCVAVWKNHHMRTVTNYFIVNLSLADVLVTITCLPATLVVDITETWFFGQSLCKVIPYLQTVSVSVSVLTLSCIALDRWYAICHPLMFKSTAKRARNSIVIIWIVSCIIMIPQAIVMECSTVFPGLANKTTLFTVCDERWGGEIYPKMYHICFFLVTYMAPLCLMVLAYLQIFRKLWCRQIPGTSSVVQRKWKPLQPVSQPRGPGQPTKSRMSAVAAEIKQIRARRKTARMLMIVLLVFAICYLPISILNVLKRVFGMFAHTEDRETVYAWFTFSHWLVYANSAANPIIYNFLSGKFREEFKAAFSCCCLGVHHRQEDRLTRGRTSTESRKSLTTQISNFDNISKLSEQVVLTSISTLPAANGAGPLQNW

Row | SMILES | IC50 (hOX1R) [nM] | IC50 (human orexin-2 receptor) [nM]
1 | CCOC(=O)c1c(C)ccnc1O[C@@H]1CC[C@@H](C)N(C(=O)c2ccccc2-n2nccn2)C1 [Example 1, Ethyl 4-methyl-2-{[(3R,6R)-6-methyl-1-{[2-(2H-1,2,3-triazol-2-yl)phenyl]carbonyl}piperidin-3-yl]oxy}pyridine-3-carboxylate] | 79 | 8.3
2 | COC(=O)c1c(C)ccnc1O[C@@H]1CC[C@@H](C)N(C(=O)c2ccccc2-n2nccn2)C1 [Example 2, methyl 4-methy1-2-{[(3R,6R)-6-methyl-1-{[2-(2H-1,2,3-triazol-2-yl)phenyl]carbonyl}piperidin-3-yl]oxy}pyridine-3-carboxylate] | 86.2 | 17.4
3 | COC(=O)c1c(SC)ccnc1O[C@@H]1CC[C@@H](C)N(C(=O)c2ccccc2-n2nccn2)C1 [Example 3, methyl 4-(methylsulfanyl)-2-{[(3R,6R)-6-methyl-1-{[2-(2H-1,2,3-triazol-2-yl)phenyl]carbonyl}-piperidin-3-yl]oxy}pyridine-3-carboxylate] | 618 | 10
4 | COC(=O)c1c(SC)ccnc1O[C@@H]1CC[C@@H](C)N(C(=O)c2ccccc2-c2ncccn2)C1 [Example 4, Methyl 2-({(3R,6R)-6-methyl-1-{(2-pyrimidin-2ylphenyl)carbonyl}piperidin-3yl}oxy)-4-(methylsulfanyl)pyridine-3-carboxylate] | 554 | 28.3
5 | COC(=O)c1c(SC)ccnc1O[C@@H]1CC[C@@H](C)N(C(=O)c2cc(F)ccc2-c2ncccn2)C1 [Example 5, methyl 2-({(3R,6R)-1-[(5-fluoro-2-pyrimidin-2-ylphenyl)carbonyl]-6-methylpiperidin-3-yl}oxy)-4-(methylsulfanyl)pyridine-3-carboxylate] | 880 | 72.9
6 | COC(=O)c1c(SC)ccnc1O[C@@H]1CC[C@@H](C)N(C(=O)c2ccc(F)cc2-c2ncccn2)C1 [Example 6, methyl 2-({(3R,6R)-1-[(4-fluoro-2-pyrimidin-2-ylphenyl)carbonyl]-6-methylpiperidin-3-yl}oxy)-4-(methylsulfanyl)pyridine-3-carboxylate] | 888 | 31.6
7 | COC(=O)c1c(SC)ccnc1O[C@@H]1CC[C@@H](C)N(C(=O)c2cccc(F)c2-c2ncccn2)C1 [Example 7, methyl 2-({(3R,6R)-1-[(3-fluoro-2-pyrimidin-2-ylphenyl)carbonyl]-6-methylpiperidin-3-yl}oxy)-4-(methylsulfanyl)pyridine-3-carboxylate] | 1030 | 37.8
8 | COC(=O)c1c(N2CCC2)ccnc1O[C@@H]1CC[C@@H](C)N(C(=O)c2ccccc2-n2nccn2)C1 [Example 8, Methyl 4-azetidin-1-yl-2-{[(3R,6R)-6-methyl-1-{[2-(2H-1,2,3-triazol-2-yl)phenyl]carbonyl}piperidin-3-yl]oxy}pyridine-3-carboxylate] | 743 | 33
9 | COC(=O)c1c(N2CCN(C)CC2)ccnc1O[C@@H]1CC[C@@H](C)N(C(=O)c2ccccc2-n2nccn2)C1 [Example 9, methyl 4-(4-methylpiperazin-1-yl)-2-{[(3R,6R)-6-methyl-1-{[2-(2H-1,2,3-triazol-2-yl)phenyl]carbonyl}-piperidin-3-yl]oxy}pyridine-3-carboxylate] | 10000 | 1530
10 | CCc1ccnc(O[C@@H]2CC[C@@H](C)N(C(=O)c3ccccc3-n3nccn3)C2)c1C(=O)OC [Example 10, Methyl 4-ethyl-2-{[(3R,6R)-6-methyl-1-{[2-(2H-1,2,3-triazol-2-yl)phenyl]carbonyl}piperidin-3-yl]oxy}pyridine-3-carboxylate] | 74.9 | 21.1
11 | COC(=O)c1c(C(C)(C)C)ccnc1O[C@@H]1CC[C@@H](C)N(C(=O)c2ccccc2-n2nccn2)C1 [Example 11] | 2050 | 1010
12 | COC(=O)c1c(C(C)C)ccnc1O[C@@H]1CC[C@@H](C)N(C(=O)c2ccccc2-n2nccn2)C1 [Example 12, methyl 4-(1-methylethyl)-2-{[(3R,6R)-6-methyl-1-{[2-(2H-1,2,3-triazol-2-yl)phenyl]carbonyl}-piperidin-3-yl]oxy}pyridine-3-carboxylate] | 80 | 5.46
13 | COC(=O)c1c(C2CC2)ccnc1O[C@@H]1CC[C@@H](C)N(C(=O)c2ccccc2-n2nccn2)C1 [Example 13, methyl 4-cyclopropyl-2-{[(3R,6R)-6-methyl-1-{[2-(2H-1,2,3-triazol-2-yl)phenyl]carbonyl}piperidin-3-yl]oxy}pyridine-3-carboxylate] | 803 | 530
14 | COC(=O)c1c(C2CCC2)ccnc1O[C@@H]1CC[C@@H](C)N(C(=O)c2ccccc2-n2nccn2)C1 [Example 14, methyl 4-cyclobutyl-2-{[(3R,6R)-6-methyl-1-{[2-(2H-1,2,3-triazol-2-yl)phenyl]carbonyl}piperidin-3-yl]oxy}pyridine-3-carboxylate] | 5580 | 272
15 | COC(=O)c1c(C)cccc1O[C@@H]1CC[C@@H](C)N(C(=O)c2ccccc2-n2nccn2)C1 [Example 15, methyl 2-methyl-6-{[(3R,6R)-6-methyl-1-{[2-(2H-1,2,3-triazol-2-yl)phenyl]carbonyl}piperidin-3-yl]oxy}benzoate] | 1930 | 36.2
16 | COC(=O)c1c(O[C@@H]2CC[C@@H](C)N(C(=O)c3ccccc3-n3nccn3)C2)cccc1C(C)C [Example 16, methyl 2-(1-methylethyl)-6-{[(3R,6R)-6-methyl-1-{[2-(2H-1,2,3-triazol-2-yl)phenyl]carbonyl}-piperidin-3-yl]oxy}benzoate] | 1460 | 68.8
17 | CCOC(=O)c1c(CC)ccnc1O[C@@H]1CC[C@@H](C)N(C(=O)c2ccccc2-n2nccn2)C1 [Example 17, Ethyl 4-ethyl-2-{[(3R,6R)-6-methyl-1-{[2-(2H-1,2,3-triazol-2-yl)phenyl]carbonyl}piperidin-3-yl]oxy}pyridine-3-carboxylate] | 172 | 40.4

From patent US9765057B2, “3-ester-4 substituted orexin receptor antagonists” (MERCK SHARP & DOHME CORP., priority 2012, dated 2017)
